Assay results taken from patent US20080039431A1, “Method of improving plant growth by reducing viral infections” (priority 2006, published 2008).

Test system: tomato spotted wilt virus (TSWV)
Experiment: Replicated tomato drench trial (Example 6)
Format: in vivo, tomato (Lycopersicon esculentum MILL.)
Conditions: prothioconazole 0.0084 g ai/plant, imidacloprid 0.01 g/plant; for Percent control of incidence of TSWV in tomatoes: Abbott's formula; for Percent incidence of TSWV in tomatoes: drench
Experimental: Cultivation—A replicated trial on tomato (Lycopersicon esculentum MILL.) was initiated in Molino, Fla. to determine if drenches of prothioconazole alone and in combination with the insecticide imidacloprid would suppress TSWV in tomato. Tomato plants, cultivar FL 47 were transplanted on April 11 into 4 rows, each 9.1 meters long, 60 plants per plot, with three replications. Treatments were applied, into a shallow bowl dug at the base of each plant, as a drench in 40 ml water per plant (6 days after transplanting) on April 17. Treatments— • Untreated—no in-furrow treatment • Imidacloprid@0.01 g imidacloprid/plant. • Prothioconazole—prothioconazole@0.0084 g active ingredient/plant. • Prothioconazole+Imidacloprid—prothioconazole@0.0084 g active ingredient/plant+imidacloprid@0.01 g imidacloprid/plant. TSWV rating—University researchers recommend buffers in TSWV testing. Therefore, the center two rows (30 plants) per plot were used for virus ratings with the outer two rows acting as buffers. TSWV incidence determinations were made based on the presence or absence of TSWV symptoms (chlorosis and stunting) per plant. The four treatments were rated at 21, 29, and 39 days after treatment. Synergy formula—The Colby formula for proof of synergy was used in Example 6. The percent incidence values were converted to percent control with Abbotts's formula (1-treated/untreated)*100. Percent control values for solo treatment X and solo treatment Y, were entered into the Colby formula. When the value determined from the plots with both treatment X and Y applied together is greater than the value determined by the Colby formula then synergy is indicated. The formula is: X+Y−(X*Y/100).

OC(Cc1ccccc1Cl)(Cn1nc[nH]c1=S)C1(Cl)CC1 (stereo not drawn) [Prothioconazole, prothioconazole]
Percent control of incidence of TSWV in tomatoes (21 days after treatment): 54.79%
Percent incidence of TSWV in tomatoes (21 days after treatment): 13.2%
Percent control of incidence of TSWV in tomatoes (29 days after treatment): 28.00%
Percent incidence of TSWV in tomatoes (29 days after treatment): 48.6%
Percent control of incidence of TSWV in tomatoes (39 days after treatment): 21.18%
Percent incidence of TSWV in tomatoes (39 days after treatment): 66.6%
